Values quoted from earlier work as cited in patent US20070265329A1, “Methods for the prevention of acute and delayed chemotherapy-induced nausea and vomiting (CINV)” (priority 2006, published 2007).
Like-named read-outs stand apart in the source and are kept apart here.

How the values were obtained:
[1] = or 7 days
[2] = system: patients following moderately emetogenic chemotherapy
[3] = system: patients (acute phase CINV); settings: over 24 hours (acute phase); study of 233 patients
[4] = system: delayed onset CINV; settings: administered twice a day

For O=C1c2cccc3c2[C@H](CCC3)CN1[C@@H]1CN2CCC1CC2 [Aloxi®, palonosetron], the “still detectable in the systemic circulation at” value [1] is listed as ≥ 168 h, the “patients who did not vomit or need additional medication for nausea” value ([2]; days 2-5 following moderately emetogenic chemotherapy) is listed as 64% and the “patients who did not vomit or need additional medication for nausea” value ([2]; first day following moderately emetogenic chemotherapy) is listed as 72%. For the same compound, the “most common side effects” value ([2]; patients taking Aloxi) was “headache and constipation”.
For CN1C2CCCC1CC(NC(=O)c1nn(C)c3ccccc13)C2 (centres unmarked) [Kytril®, granisetron], the “complete response (no vomiting, no moderate or severe nausea, no rescue medication)” value [3] is listed as 81%, the “treatment of delayed onset CINV” value [4] is listed as “effective” and the “clearance in cancer patients” value (compared with normal volunteers) is listed as “approximately half that of normal volunteers”. For the same compound, the peak plasma concentrate (oral, 1 mg bid over seven days) was 6.0 ng/mL.
